The source of these data is patent US20200399222A1, “PICOLINAMIDES AS FUNGICIDES” (Dow AgroSciences LLC, priority 2018, published 2020).

Like-named read-outs stand apart in the source and are kept apart here.

Common to all, as to type: in vivo
In one assay the test system is Puccinia triticina. The experiment in a line: Wheat brown rust (PUCCRT) disease control on wheat seedlings. The following applies: Low volume application, 121.5 g/ha. In outline:
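Yuma wheat seedlings (first leaf emerged) sprayed to run-off with compound in acetone plus nine volumes water containing 110 ppm Triton X-100, or track-sprayed as EC formulations with 0.1% Trycol 5941. Rust spores inoculated before or after treatment; overnight dark dew, 22 °C, 100% RH, then greenhouse at 24 °C.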

Another assay has as its system Zymoseptoria tritici. The experiment in a line: Leaf blotch of wheat (SEPTTR) disease control on wheat seedlings. The following applies: Low volume application, 121.5 g/ha.
For assay [1], the system named is Pseudoperonospora cubensis. The experiment in a line: Cucumber downy mildew (PSPECU) disease control on cucumber seedlings. The following applies: 1DP test at 100 ppm. The procedure:
Technical grades of materials were dissolved in acetone, which were then mixed with nine volumes of water containing 110 ppm Triton X-100. The fungicide solutions were applied onto wheat seedlings using an automated booth sprayer to run-off. All sprayed plants were allowed to air dry prior to further handling. All fungicides were evaluated using the aforementioned method for their activity vs. all target diseases, unless stated otherwise. Wheat leaf blotch and brown rust activity were also evaluated using track spray applications, in which case the fungicides were formulated as EC formulations, containing 0.1% Trycol 5941 in the spray solutions. Example H: Evaluation of Fungicidal Activity: Cucumber Downy Mildew (Pseudoperonospora cubensis; Bayer Code […]) Cucumber seedlings (variety Bush Pickle) were grown in soil-less Metro mix, with one plant per pot, and used in the test when 12 to 14 days old. Plants were inoculated with a spore suspension 24 hr following fungicide treatments. […] After inoculation the plants were kept in a dew room at 22° C. with 100% relative humidity for 24 hr to permit spores to germinate and infect the leaf. The plants were then transferred to a greenhouse set at 20° C. until disease was fully expressed. […]

A further assay has as its system Phakopsora pachyrhizi. Description: Asian soybean rust (PHAKPA) disease control on soybean seedlings. The settings on record: Phakopsora pachyrhizi, High volume application at 25 ppm. In outline: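 Compounds in acetone diluted with nine volumes of water containing 0.011% Tween 20, sprayed to run-off on two-week-old Williams 82 soybean seedlings; inoculation 3 days before or 1 day after treatment. Plants held 24 h in dark dew room at 22° C, 100% RH, then at 23° C; disease severity scored on sprayed leaves.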

A further assay has as its system Uncinula necator. Description: Grape powdery mildew (UNCINE) disease control on grape seedlings. The following applies: 1DP test at 100 ppm. How it is done: Technical grades of materials were dissolved in acetone, which were then mixed with nine volumes of water containing 110 ppm Triton X-100. The fungicide solutions were applied onto wheat seedlings using an automated booth sprayer to run-off. All sprayed plants were allowed to air dry prior to further handling. All fungicides were evaluated using the aforementioned method for their activity vs. all target diseases, unless stated otherwise. Wheat leaf blotch and brown rust activity were also evaluated using track spray applications, in which case the fungicides were formulated as EC formulations, containing 0.1% Trycol 5941 in the spray solutions. Example K: Evaluation of Fungicidal Activity: Grape Powdery Mildew (Uncinula necator; Bayer Code […]) Grape seedlings (variety Carignane) were grown in soil-less Metro mix, with one plant per pot, and used in the test when approximately 1 month old. Plants were inoculated 24 hr after fungicide treatment by shaking spores from infected leaves over test plants. Plants were maintained in a greenhouse set at 20° C. until disease was fully developed. Fungicide formulation, application and disease assessment on sprayed leaves followed the procedures as described in the Example A.

In a further assay the test system is Alternaria solani. Description: Tomato early blight (ALTESO) disease control on tomato plants. The following applies: 1DP test at 100 ppm. The procedure: Technical grades of materials were dissolved in acetone, which were then mixed with nine volumes of water containing 110 ppm Triton X-100. The fungicide solutions were applied onto wheat seedlings using an automated booth sprayer to run-off. All sprayed plants were allowed to air dry prior to further handling. All fungicides were evaluated using the aforementioned method for their activity vs. all target diseases, unless stated otherwise. Wheat leaf blotch and brown rust activity were also evaluated using track spray applications, in which case the fungicides were formulated as EC formulations, containing 0.1% Trycol 5941 in the spray solutions. Example D: Evaluation of Fungicidal Activity: Tomato Early Blight (Alternaria solani; Bayer Code […]) Tomato plants (variety Outdoor Girl) were propagated in soil-less Metro mix, with each pot having one plant, and used when 12 to 14 days old. Test plants were inoculated with an aqueous spore suspension of Alternaria solani 24 hr after fungicide treatments. After inoculation the plants were kept in 100% relative humidity (one day in a dark dew chamber followed by two to three days in a lighted dew chamber at 20° C.) to permit spores to germinate and infect the leaf. The plants were then transferred to a growth room at 22° C. for disease to develop. […]

Consider `COc1ccnc(C(=O)N[C@@H](C)C(=O)O[C@@H](C)[C@@H](C)c2ccccc2C)c1OC(C)=O` [Example 264], for which the pest or weed control at 121.5 g/ha was > 80% in the assay on Puccinia triticina (24 h, 1 Day Protectant, read-out: PUCCRT disease control rating, 1DP); > 80% in the assay with Puccinia triticina (72 h, 3 Day Curative, read-out: PUCCRT disease control rating, 3DC); < 80% in the assay on Zymoseptoria tritici (24 h, 1 Day Protectant, read-out: SEPTTR disease control rating, 1DP); < 80% in the assay on Zymoseptoria tritici (72 h, 3 Day Curative, read-out: SEPTTR disease control rating, 3DC). The “PSPECU disease control rating” value in assay [1] was “B (≤80)”. Further, the pest or weed control at 25 ppm in the assay with Phakopsora pachyrhizi (24 h, 1 day protectant, read-out: PHAKPA 1DP (1 Day Protectant) disease control) was > 80%; in the assay on Phakopsora pachyrhizi (72 h, 3 day curative, read-out: PHAKPA 3DC (3 Day Curative) disease control), > 80%. Moreover, the “UNCINE disease control rating” value in the assay with Uncinula necator is “A (>80)”. In addition, in the assay with Alternaria solani, the “ALTESO disease control rating” value is given as “B (≤80)”.
